Columns and labels:
Assay in all cases: cells
Type in all cases: cell-based, human
[1] = tested on: HCT-15; conditions: read-out: GI50 HCT-15 colorectal
[2] = tested on: NCI-H460; conditions: read-out: GI50 NCI-H460 lung
[3] = tested on: A549; conditions: read-out: GI50 A549 lung (+p53)
[4] = tested on: SF-268; conditions: read-out: GI50 SF-268 CNS
[5] = tested on: Hep3b; conditions: read-out: GI50 Hep3b liver
[6] = tested on: DU-145; conditions: read-out: GI50 DU-145 prostate
[7] = tested on: SKOV3; conditions: read-out: GI50 SKOV3 ovary
[8] = tested on: H1299; conditions: read-out: GI50 H1299 lung (−p53)
[9] = tested on: MCF7; conditions: read-out: GI50 MCF7 breast
[10] = tested on: HT29; conditions: read-out: GI50 HT29 colorectal

SMILES | GI50 [1] | GI50 [2] | GI50 [3] | GI50 [4] | GI50 [5] | GI50 [6] | GI50 [7] | GI50 [8] | GI50 [9] | GI50 [10]
CON(CCCCc1ccc(N(CCCl)CCCl)cc1)C1CC(O)C(O)C(CO)O1 (centres unmarked) [Compound 30] | 700 ± 50 nM | 5.4 ± 0.6 µM | 3.1 ± 0.5 µM | 2500 ± 500 nM | 3.7 ± 0.3 µM | 4.3 ± 0.3 µM | 1120 ± 100 nM | 580 ± 60 nM | 5.4 ± 0.1 µM | 1200 ± 200 nM
O=C1O[C@@H]2[C@@H](O)[C@H](N(O)CCCCc3ccc(N(CCCl)CCCl)cc3)O[C@@H]2[C@@H]1O [Compound 67, N-Hydroxy-4-(4-N′,N′-bis(2-chloroethyl)amino)phenylbutylamino-D-glucurono-6,3-lactonide] | 8500 ± 500 nM | 13.1 ± 0.4 µM | 10.4 ± 0.6 µM | 3100 ± 100 nM | 7.2 ± 0.3 µM | 14.8 ± 0.8 µM | 10100 ± 400 nM | 3800 ± 100 nM | 4.1 ± 0.2 µM | 9900 ± 200 nM
CON(CCCCc1ccc(N(CCCl)CCCl)cc1)[C@@H]1O[C@@H](CO)[C@@H](O)[C@@H](O)[C@H]1O [Compound 59] | 2000 ± 100 nM | 4.3 ± 0.4 µM | 2.7 ± 0.2 µM | 1700 ± 100 nM | 2.6 ± 0.1 µM | 3.4 ± 0.1 µM | 2000 ± 100 nM | 2400 ± 200 nM | 1.8 ± 0.3 µM | 1900 ± 100 nM
CO[C@@H]1[C@@H](OC(N)=O)[C@@H](O)C(N(CCCCc2ccc(N(CCCl)CCCl)cc2)OC)OC1(C)C (some centres unmarked) [Compound 49] | 1700 ± 200 nM | 9.7 ± 0.5 µM | 5.8 ± 0.8 µM | 5100 ± 800 nM | 6 ± 1 µM | 6.7 ± 0.5 µM | 5400 ± 800 nM | 1300 ± 200 nM | 4.8 ± 0.9 µM | 6000 ± 100 nM
CON(CCCCc1ccc(N(CCCl)CCCl)cc1)C1OCC(O)C1O (centres unmarked) [Compound 61] | 820 ± 50 nM | 1.9 ± 0.5 µM | 2 ± 0.2 µM | 1300 ± 100 nM | 1.4 ± 0.1 µM | 2.1 ± 0.1 µM | 2100 ± 100 nM | 720 ± 30 nM | 0.87 ± 0.09 µM | 1200 ± 100 nM
CON(CCCCc1ccc(N(CCCl)CCCl)cc1)C1OC(CO)C(O)C(O)C1O (mixture of isomers) [Compound 12] | 1400 ± 100 nM | 6.6 ± 0.4 µM | 2.4 ± 0.1 µM | 1900 ± 100 nM | 1.7 ± 0.1 µM | 4.1 ± 0.2 µM | 1900 ± 100 nM | 910 ± 50 nM | 6.5 ± 0.1 µM | 1600 ± 200 nM
CON(CCCCc1ccc(N(CCCl)CCCl)cc1)C1OC(CO)C(O)C(O)C1O (mixture of isomers) [Compound 40] | 880 ± 70 nM | 8 ± 0.7 µM | 3.3 ± 0.2 µM | 2000 ± 100 nM | 3.9 ± 0.2 µM | 4.8 ± 0.1 µM | 2500 ± 100 nM | 550 ± 50 nM | 3.2 ± 0.3 µM | 2900 ± 100 nM
CC(=O)OC1COC(N(CCCCc2ccc(N(CCCl)CCCl)cc2)OC(C)=O)C(OC(C)=O)C1OC(C)=O (mixture of isomers) [Compound 69, N-Acetoxy-4-(4-N′,N′-bis(2-chloroethyl)amino)phenylbutylamino-D-riboside peracetate] | 1100 ± 100 nM | 1.3 ± 0.1 µM | 1.12 ± 0.07 µM | 1600 ± 100 nM | > 5 µM | > 5 µM | 530 ± 10 nM | 1050 ± 50 nM | 4.6 ± 0.3 µM | 960 ± 70 nM
CON(CCCCc1ccc(N(CCCl)CCCl)cc1)C1CC(O)C(O)C(C)O1 (mixture of isomers) [Compound 18] | 1300 ± 100 nM | 6.5 ± 0.4 µM | 2.7 ± 0.2 µM | 2800 ± 100 nM | 3.2 ± 0.1 µM | 4.3 ± 0.1 µM | 3000 ± 100 nM | 1100 ± 100 nM | 6.3 ± 0.1 µM | 2100 ± 90 nM
C[C@H]1OC(N(O)CCCCc2ccc(N(CCCl)CCCl)cc2)[C@H](O)[C@@H](O)[C@H]1O (stereo partly drawn) [Compound 66, N-Hydroxy-4-(4-N′,N′-bis(2-chloroethyl)amino)phenylbutylamino-D-fucoside] | 3800 ± 300 nM | 4.9 ± 0.2 µM | 6.4 ± 0.3 µM | 1400 ± 100 nM | 3.6 ± 0.3 µM | 5.7 ± 0.4 µM | 4700 ± 100 nM | 2600 ± 100 nM | 2.7 ± 0.1 µM | 4600 ± 100 nM
CON(CCCCc1ccc(N(CCCl)CCCl)cc1)C1OC(C)C(O)C(O)C1O (centres unmarked) [Compound 37] | 1100 ± 100 nM | 8.5 ± 0.8 µM | 4.6 ± 0.2 µM | 2900 ± 100 nM | 4.4 ± 0.3 µM | 4.9 ± 0.1 µM |  | 1800 ± 100 nM | 5.8 ± 0.1 µM | 2200 ± 200 nM
CON(CCCCc1ccc(N(CCCl)CCCl)cc1)C1OCC(O)C1O (centres unmarked) [Compound 19] | 770 ± 90 nM | 7.8 ± 0.9 µM | 3.1 ± 0.8 µM | 2400 ± 800 nM | 4.1 ± 0.9 µM | 5 ± 0.7 µM | 2600 ± 900 nM | 1100 ± 100 nM | 8 ± 0.1 µM | 1600 ± 100 nM
CON(CCCCc1ccc(N(CCCl)CCCl)cc1)C1OC(COCc2ccccc2)C(OCc2ccccc2)C1OCc1ccccc1 (centres unmarked) [Compound 57] | > 100000 nM | > 100 µM | > 100 µM | > 100000 nM | > 100 µM | > 100 µM | > 100000 nM | 82000 ± 7000 nM | > 100 µM | > 100000 nM
CON(CCCCc1ccc(N(CCCl)CCCl)cc1)C1CC(O)C(O)CO1 (mixture of isomers) [Compound 55] | 2300 ± 100 nM | 5.8 ± 0.6 µM | 2.6 ± 0.2 µM | 2100 ± 100 nM | 2.6 ± 0.1 µM | 4 ± 0.1 µM | 2000 ± 100 nM | 3700 ± 200 nM | 0.96 ± 0.02 µM | 2600 ± 100 nM
CON(CCCCc1ccc(N(CCCl)CCCl)cc1)C1OCC(O)C(O)C1O (centres unmarked) [Compound 62] | 900 ± 50 nM | 4.5 ± 0.4 µM | 2.3 ± 0.1 µM | 1400 ± 100 nM | 1.5 ± 0.1 µM | 2.3 ± 0.1 µM | 2200 ± 100 nM | 830 ± 40 nM | 0.91 ± 0.09 µM | 1600 ± 100 nM
CON(CCCCc1ccc(N(CCCl)CCCl)cc1)C1OC(C)C(OC(C)=O)C(OC(C)=O)C1OC(C)=O (centres unmarked) [Compound 52] | 3700 ± 200 nM | 7.8 ± 0.8 µM | 3.5 ± 0.1 µM | 3000 ± 100 nM | 4.6 ± 0.2 µM | 4.5 ± 0.1 µM | 3900 ± 100 nM | 5000 ± 400 nM | 3.2 ± 0.6 µM | 4300 ± 200 nM
CON(CCCCc1ccc(N(CCCl)CCCl)cc1)[C@@H]1O[C@H](CO)[C@@H](O)[C@H](O[C@H](C)C(=O)O)[C@H]1NC(C)=O [Compound 48] | 3100 ± 200 nM | 13.1 ± 0.3 µM | 8.6 ± 0.6 µM | 4100 ± 100 nM | 8 ± 0.4 µM | 8.9 ± 0.3 µM | 7000 ± 200 nM | 2400 ± 200 nM | 4.5 ± 0.3 µM | 6300 ± 300 nM
CON(CCCCc1ccc(N(CCCl)CCCl)cc1)C1OC(CO)C(O)C(O)C1O (mixture of isomers) [Compound 43] | 1900 ± 200 nM | 7.8 ± 0.7 µM | 3.5 ± 0.2 µM | 1800 ± 100 nM | 3.2 ± 0.2 µM | 5.1 ± 0.2 µM | 2300 ± 100 nM | 1010 ± 70 nM | 1.9 ± 0.1 µM | 2600 ± 200 nM
CON(CCCCc1ccc(N(CCCl)CCCl)cc1)[C@@H]1O[C@H](CO[C@H]2O[C@H](CO)[C@H](O)[C@H](O)[C@H]2O)[C@@H](O)[C@H](O)[C@H]1O [Compound 47] | 20000 ± 1000 nM | 45.5 ± 0.4 µM | 40 ± 2 µM | 16300 ± 500 nM | 29 ± 3 µM | 36 ± 1 µM | 27000 ± 1000 nM | 17800 ± 60 nM | 21 ± 2 µM | 27400 ± 300 nM
CON(CCCCc1ccc(N(CCCl)CCCl)cc1)C1OC(CO)C(O)C(O)C1F (centres unmarked) [Compound 31] | 1080 ± 40 nM | 6.4 ± 0.07 µM | 2.6 ± 0.1 µM | 2200 ± 100 nM | 3.2 ± 0.1 µM | 4.2 ± 0.1 µM | 2000 ± 100 nM | 1200 ± 100 nM | 7.3 ± 0.1 µM | 2400 ± 200 nM
CON(CCCCc1ccc(N(CCCl)CCCl)cc1)C1OC[C@H](O)[C@H](O)[C@@H]1O (stereo partly drawn) [Compound 54, N-Methoxy-4-(4-N′,N′-bis(2-chloroethyl)amino)phenylbutylamino-L-riboside] | 2100 ± 100 nM | 5.7 ± 0.6 µM | 2.4 ± 0.1 µM | 2100 ± 200 nM | 2.4 ± 0.1 µM | 3.7 ± 0.1 µM | 2000 ± 100 nM | 3300 ± 200 nM | 0.97 ± 0.02 µM | 2200 ± 100 nM
CON(CCCCc1ccc(N(CCCl)CCCl)cc1)C1OC(CO)C(O)C(O)C1O (mixture of isomers) [Compound 23] | 2400 ± 100 nM | 9.7 ± 0.8 µM | 4.4 ± 0.4 µM | 1900 ± 500 nM | 3.6 ± 0.3 µM | 5.6 ± 0.3 µM | 3400 ± 500 nM | 1300 ± 100 nM | 1.3 ± 0.2 µM | 3300 ± 400 nM
CON(CCCCc1ccc(N(CCCl)CCCl)cc1)C1OC(CO)C(O)C(O)C1O (centres unmarked) [Compound 28] | 2800 ± 200 nM | 12.3 ± 0.7 µM | 4.5 ± 0.2 µM | 1800 ± 100 nM | 3.4 ± 0.1 µM | 5.5 ± 0.2 µM | 3000 ± 100 nM | 1400 ± 100 nM | 1.5 ± 0.1 µM | 2900 ± 400 nM
CON(CCCCc1ccc(N(CCCl)CCCl)cc1)C1OC(CCl)C(O)C(O)C1O (centres unmarked) [Compound 36] | 1200 ± 100 nM | 5.8 ± 0.6 µM | 3 ± 0.1 µM | 2100 ± 100 nM | 3.2 ± 0.2 µM | 3.7 ± 0.1 µM | 2100 ± 100 nM | 1300 ± 100 nM | 4.9 ± 0.1 µM | 2100 ± 100 nM

— patent US8552176B2 (priority 2010, dated 2013)
